From patent publication US5736529A, “Use of NAD-related compounds in the treatment of neural trauma to inhibit neurodegeneration” (priority 1996, dated 1998)
Entries after “also recorded” stand apart in the source; their conditions may differ.

Experiments:
xanthine oxidase = conditions: previous studies; cited from earlier work
[1] = test system: dopaminergic neurons in the midbrain; assay: Apoptosis in MPTP treated mice (In Situ Apoptosis Detection Kit, tyrosine hydroxylase staining); type: in vivo, mouse (C57BL/6); conditions: MPTP 25 mg/kg ip twice; 48 hours
Method: After 48 hours the mice were perfused through the left ventricle with phosphate buffered saline (PBS) and then with 4% formaldehyde and 0.2% glutaraldehyde in PBS. The brains were coronally sliced into 50μ sections in a vibrating microtome.
To detect individual cells undergoing apoptosis, the In Situ Apoptosis Detection Kit (Oncor) was used. In this method, the fragmented DNA ends are extended with digoxigenin-dUTP. An anti-digoxigenin antibody then binds to the extension and is detected by a peroxidase reaction as previously described.
Tyrosine hydroxylase staining was done to identify dopaminergic neurons in the substantia nigra. The IgG polyclonal antibodies used were: a rabbit antibody to tyrosine hydroxylase; a sheep antibody to rabbit IgG and a rabbit antibody to horseradish peroxidase with the horseradish peroxidase coupled to the antibody^22. The tyrosine hydroxylase-stained brain slices were mounted on glass slides, dehydrated and coverslipped with balsam.

[2] = test system: DNA in midbrain and striatum of C57BL/6 mice; assay: Fluorimetric assay of DNA fragmentation in MPTP treated mice (Table 7); type: in vivo, mouse (C57BL/6); conditions: for DNA damage, MIDBRAIN: MPTP 25 mg/kg ip twice, mean ± S.D.
Excerpt: A fifth group was the control. Brains were removed and the midbrain and striatum isolated.

[3] = test system: superoxide radicals produced by xanthine oxidase; assay: Quenching of superoxide radicals (EPR); conditions: 0.1M nicotinamide
Method: (§1) EPR spectra were measured at 23° and 100 kHz in a Bruker model ECS 106 spectrometer (Bruker, Karlsruhe, Germany). The EPR conditions were: modulation amplitude 0.483G, microwave power 20 mW and time constant 1.3 seconds.

[4] = test system: hydroxyl radicals generated by the addition of 0.4M hydrogen peroxide; assay: Quenching of hydroxyl radicals (EPR); conditions: 0.1M nicotinamide
Method: as §1

24 month old mice = conditions: mouse, in vivo, 500 mg/kg
[5] = test system: poly(ADP-ribose) polymerase (PADPRP); conditions: cited from earlier work
ATP = conditions: known effect of nicotinamide; cited from earlier work

In the case of C[n+]1ccc(-c2ccccc2)cc1 [MPP+], the “substrate for xanthine oxidase” value (xanthine oxidase) is given as “can act as a substrate for xanthine oxidase”.

With CN1CC=C(c2ccccc2)CC1 [MPTP, 1-methyl-4-phenyl-1,2,3,6-tetrahydropyridine] the “apoptotic cells in dopaminergic neurons in the midbrain” value [1] was “Apoptotic cells with shrunken and fragmented nuclei were detected”, the “DNA fragmentation in the midbrain” value ([2]; 25 mg/kg MPTP twice, 48 hours, p<0.05) was “Significant DNA fragmentation” and the “DNA damage, MIDBRAIN” value ([2]; 2 hours) was 0.9108 ± 0.2233 per gram of tissue. For the same compound, the “DNA damage, MIDBRAIN” value ([2]; 48 hours, * p<0.05 vs control) was 1.6373 ± 0.4567 per gram of tissue.

For NC(=O)c1cccnc1 [nicotinamide], the “quenching of superoxide radicals” value [3] was “able to quench superoxide radicals”, the “quenching of hydroxyl radicals” value [4] was “able to quench hydroxyl radicals” and the deaths (24 month old mice) was “one out of six”. For the same compound, the “inhibition of poly(ADP-ribose) polymerase” value [5] was “inhibits poly(ADP-ribose) polymerase; also recorded: weak inhibitor” and the ATP levels (ATP) was “elevate NAD levels and ATP levels”.
